How the values were obtained:
[1] = tested on: central benzodiazepine receptors; experiment: Central benzodiazepine receptor binding (test of Speth et al.); conditions: 1000 nM of the compound
Procedure, shortened: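 Values are percent inhibition of central benzodiazepine receptor binding at 1000 nM compound (initial single-point screen at 1.0E-09, 1.0E-07 and 1.0E-05 M). Speth et al. binding test; nonspecific binding defined with excess unlabelled ligand and subtracted from total.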

[2] = molecular target: T1, α1 subtype containing GABA-A receptors (Homo sapiens, UniProt P14867+P18507); experiment: Two-electrode voltage clamp electrophysiology in Xenopus oocytes, potentiation of GABA EC20 response, α1; format: cell-based; conditions: 100 nM compound; for activation at 0.1 µM: read-out: Percentage of potentiation alpha1
T1 construct: expressed in transfected cells; host or cells: Xenopus laevis oocytes, cRNA injected
T1 sequence (P14867 28-456): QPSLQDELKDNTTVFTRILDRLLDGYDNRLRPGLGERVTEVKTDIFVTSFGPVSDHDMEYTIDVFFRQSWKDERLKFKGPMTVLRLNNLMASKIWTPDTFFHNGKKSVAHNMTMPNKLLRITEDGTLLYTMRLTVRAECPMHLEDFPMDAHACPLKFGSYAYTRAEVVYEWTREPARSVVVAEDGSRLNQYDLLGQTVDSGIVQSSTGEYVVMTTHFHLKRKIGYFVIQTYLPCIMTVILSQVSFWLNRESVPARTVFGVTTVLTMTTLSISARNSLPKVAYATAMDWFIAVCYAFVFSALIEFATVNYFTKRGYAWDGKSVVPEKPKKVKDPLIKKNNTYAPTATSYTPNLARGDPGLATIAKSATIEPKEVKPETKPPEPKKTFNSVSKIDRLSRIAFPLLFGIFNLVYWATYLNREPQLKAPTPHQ
T1 sequence (P28472 26-473 partner): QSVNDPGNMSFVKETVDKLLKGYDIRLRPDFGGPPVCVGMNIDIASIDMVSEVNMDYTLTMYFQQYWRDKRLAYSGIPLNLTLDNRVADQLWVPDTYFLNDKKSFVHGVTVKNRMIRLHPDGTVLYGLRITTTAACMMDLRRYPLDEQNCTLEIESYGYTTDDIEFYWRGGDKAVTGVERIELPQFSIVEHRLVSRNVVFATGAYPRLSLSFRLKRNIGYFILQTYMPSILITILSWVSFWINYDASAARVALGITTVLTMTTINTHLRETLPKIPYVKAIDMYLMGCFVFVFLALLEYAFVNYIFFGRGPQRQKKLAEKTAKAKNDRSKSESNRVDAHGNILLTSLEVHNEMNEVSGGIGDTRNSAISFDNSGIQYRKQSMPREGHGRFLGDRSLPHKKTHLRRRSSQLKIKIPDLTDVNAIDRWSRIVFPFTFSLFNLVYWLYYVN
T1 sequence (P18507 40-475): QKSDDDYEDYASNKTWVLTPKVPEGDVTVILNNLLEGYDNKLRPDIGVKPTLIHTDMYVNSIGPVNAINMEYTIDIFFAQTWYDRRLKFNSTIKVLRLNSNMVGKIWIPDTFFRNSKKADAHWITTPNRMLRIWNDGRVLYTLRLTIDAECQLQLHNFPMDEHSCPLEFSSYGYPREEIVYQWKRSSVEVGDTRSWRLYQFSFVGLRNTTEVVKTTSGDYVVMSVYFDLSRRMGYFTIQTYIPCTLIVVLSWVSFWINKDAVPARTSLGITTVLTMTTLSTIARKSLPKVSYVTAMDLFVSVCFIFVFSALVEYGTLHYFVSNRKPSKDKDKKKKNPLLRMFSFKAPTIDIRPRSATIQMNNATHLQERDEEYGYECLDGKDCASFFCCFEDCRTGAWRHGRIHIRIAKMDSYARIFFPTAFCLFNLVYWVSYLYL
Protocol: (§1) Electrophysiology protocol: Oocytes were prepared from adult female Xenopus laevis frogs. cRNA encoding human α1, α2, α3, α5, β3 and γ2L GABAA receptor subunits was injected into the cytoplasm of stage 5 or 6 oocytes using the Robocyte Robot (Multi Channel Systems, Reutlingen, Germany). Two-electrode voltage clamp recordings were made in 96-well plates using the Robocyte Robot. Oocytes were impaled using recording heads with two glass electrodes containing 1.5 M potassium acetate and 0.5 M KCl and held at a membrane potential of −80 mV. Oocytes were continually perfused with a ND96 solution (96 mM NaCl, 2 mM KCl, 0.1 mM CaCl2, and 5 mM HEPES, pH 7.5) using a Gilson 222 XL Liquid Handler and Gilson Minipuls 3 Peristaltic Pump (Gilson Medical Electronics, Middleton, Wis., USA). The protocol consisted of three 20-s applications of GABA that gave a 20% of the maximum response (EC20: 60 μM) to allow for headroom to determine a baseline GABA response. To assess the potentiation, oocytes were first exposed to a single 1 μM chlordiazepoxide (CDP) as a potentiation standard. Oocytes with insufficient expression levels (currents below threshold) or insufficient γ2L subunit incorporation (judged by rapid desensitization upon GABA application, or by insufficient potentiation by CDP) were not included in analysis. Following this control application, a given oocyte was exposed to test compounds at 100 nM concentrations. Only one concentration of one compound was tested per oocyte. […] One skilled in the art will recognize that subtypes contribute to the effects of GABA-A modulators. Such that compounds favoring different subtypes can have different therapeutic effects. The magnitude of modulation, for example, partial modulators can influence the effects in vivo. “++” indicates a greater modulation that “+” so that at any given subtype “++” inducates a greater amount of modulation for that subtype. In some embodiments, modulation favoring alpha 1 relative to alpha2 and/or alpha 3 can have sedative hypnotic effects. In other embodiments, compounds with reduced selectivity of alpha 1 can express anxiolytic effects with less sedation. Compounds with selectivity for alpha 5 can have memory/cognition enhancing effects.

[3] = molecular target: T2, α2 subtype containing GABA-A receptors (Homo sapiens, UniProt P18507+P47869); experiment: Two-electrode voltage clamp electrophysiology in Xenopus oocytes, potentiation of GABA EC20 response, α2; format: cell-based; conditions: 100 nM compound; for activation at 0.1 µM: read-out: Percentage of potentiation alpha2
T2 construct: expressed in transfected cells; host or cells: Xenopus laevis oocytes, cRNA injected
T2 sequence (P47869 29-451): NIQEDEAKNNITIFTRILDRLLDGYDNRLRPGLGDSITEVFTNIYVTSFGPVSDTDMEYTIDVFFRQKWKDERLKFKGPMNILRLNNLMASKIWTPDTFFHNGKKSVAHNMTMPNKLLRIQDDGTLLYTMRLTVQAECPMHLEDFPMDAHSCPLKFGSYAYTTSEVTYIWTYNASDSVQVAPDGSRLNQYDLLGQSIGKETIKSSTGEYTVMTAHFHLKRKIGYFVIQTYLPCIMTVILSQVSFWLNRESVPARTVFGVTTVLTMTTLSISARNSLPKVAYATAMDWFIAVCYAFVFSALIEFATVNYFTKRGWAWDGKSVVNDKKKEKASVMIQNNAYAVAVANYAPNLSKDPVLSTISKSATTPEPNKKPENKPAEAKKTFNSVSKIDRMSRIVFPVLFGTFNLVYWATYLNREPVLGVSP
T2 sequence (P28472 26-473 partner): as the sequence (P28472 26-473 partner) above
T2 sequence (P18507 40-475): as the sequence (P18507 40-475) above
Protocol: as §1

Row | SMILES | % Inhibition at 1000 nM for CBZD [1] | Percentage of potentiation alpha1 [2] | Percentage of potentiation alpha2 [3] | activation at 0.1 µM [2] | activation at 0.1 µM [3]
1 | Clc1ccc(-c2nc3ccc(Cl)cn3c2Cn2ccnn2)cc1 [Compound 19, 3-((1H-1,2,3-triazol-1-yl)methyl)-6-chloro-2-(4-chlorophenyl)H-imidazo[1,2-a]pyridine] | ++ (percentage of inhibition of central BZD site binding is greater than 80% in the presence of 1000 nM of the compound) | + (percentage of potentiation is greater than or equal to 10% but less than 50% in the presence of 100 nM of the compound) | + (percentage of potentiation is greater than or equal to 10% but less than 50% in the presence of 100 nM of the compound) |  | 
2 | Cc1noc(-c2nccn2Cc2c(-c3ccc(Cl)cc3)nc3ccccn23)n1 [Compound 27, 2-(4-chlorophenyl)-3-((2-(3-methyl-1,2,4-oxadiazol-5-yl)-1H-imidazol-1-yl)methyl)H-imidazo[1,2-a]pyridine] | ++ (percentage of inhibition of central BZD site binding is greater than 80% in the presence of 1000 nM of the compound) | + (percentage of potentiation is greater than or equal to 10% but less than 50% in the presence of 100 nM of the compound) | + (percentage of potentiation is greater than or equal to 10% but less than 50% in the presence of 100 nM of the compound) |  | 
3 | CCOC(=O)c1cc(C)n(Cc2c(-c3ccc(Cl)cc3)nc3ccccn23)n1 [Compound 29, ethyl 1-((2-(4-chlorophenyl)imidazo[1,2-a]pyridin-3-yl)methyl)-5-methyl-1H-pyrazole-3-carboxylate] | ++ (percentage of inhibition of central BZD site binding is greater than 80% in the presence of 1000 nM of the compound) |  |  | ≥ 50% | ≥ 50%
4 | Clc1ccc(-c2nc3ccccn3c2Cn2nc3ccccc3n2)cc1 [Compound 43, 2-((2-(4-chlorophenyl)H-imidazo[1,2-a]pyridin-3-yl)methyl)-2H-benzo[d][1,2,3]triazole] | ++ (percentage of inhibition of central BZD site binding is greater than 80% in the presence of 1000 nM of the compound) | 0 (percentage of potentiation is between about 10% to about −10%) | + (percentage of potentiation is greater than or equal to 10% but less than 50% in the presence of 100 nM of the compound) |  | 
5 | COC(=O)c1ncnn1Cc1c(-c2ccccc2)nc2ccc(Cl)cn12 [Compound 44, 2-(6-Chloro-2-phenyl-imidazo[1,2-a]pyridin-3-ylmethyl)-2H-[1,2,4]triazole-3-carboxylic acid methyl ester] | ++ (percentage of inhibition of central BZD site binding is greater than 80% in the presence of 1000 nM of the compound) |  |  | -10 to 10% | -10 to 10%
6 | Clc1ccc2nc(-c3ccccc3)c(Cn3nnc4ccccc43)n2c1 [Compound 46, 1-((6-chloro-2-phenylH-imidazo[1,2-a]pyridin-3-yl)methyl)-1H-benzo[d][1,2,3]triazole] | ++ (percentage of inhibition of central BZD site binding is greater than 80% in the presence of 1000 nM of the compound) | + (percentage of potentiation is greater than or equal to 10% but less than 50% in the presence of 100 nM of the compound) | 0 (percentage of potentiation is between about 10% to about −10%) |  | 
7 | Clc1ccc2nc(-c3ccccc3)c(Cn3nc4ccccc4n3)n2c1 [Compound 47, 2-((6-chloro-2-phenylH-imidazo[1,2-a]pyridin-3-yl)methyl)-2H-benzo[d][1,2,3]triazole] | + (percentage of inhibition of central BZD site binding is greater than 50% but less than 80% in the presence of 1000 nM of the compound) | 0 (percentage of potentiation is between about 10% to about −10%) | 0 (percentage of potentiation is between about 10% to about −10%) |  | 
8 | Fc1ccc(-c2nc3ccccn3c2Cn2nccn2)cc1 [Compound 49, 3-((2H-1,2,3-triazol-2-yl)methyl)-2-(4-fluorophenyl)H-imidazo[1,2-a]pyridine] | ++ (percentage of inhibition of central BZD site binding is greater than 80% in the presence of 1000 nM of the compound) | 0 (percentage of potentiation is between about 10% to about −10%) | + (percentage of potentiation is greater than or equal to 10% but less than 50% in the presence of 100 nM of the compound) |  | 
9 | Fc1ccc2nc(-c3ccc(Cl)cc3)c(Cn3nccn3)n2c1 [Compound 56, 3-((2H-1,2,3-triazol-2-yl)methyl)-2-(4-chlorophenyl)-6-fluoroH-imidazo[1,2-a]pyridine] | ++ (percentage of inhibition of central BZD site binding is greater than 80% in the presence of 1000 nM of the compound) | + (percentage of potentiation is greater than or equal to 10% but less than 50% in the presence of 100 nM of the compound) | ++ (percentage of potentiation is greater than or equal to 50% in the presence of 100 nM of the compound) |  | 
10 | Fc1ccc2nc(-c3ccc(Cl)cc3)c(Cn3ccnn3)n2c1 [Compound 57, 3-((1H-1,2,3-triazol-1-yl)methyl)-2-(4-chlorophenyl)-6-fluoroH-imidazo[1,2-a]pyridine] | ++ (percentage of inhibition of central BZD site binding is greater than 80% in the presence of 1000 nM of the compound) | + (percentage of potentiation is greater than or equal to 10% but less than 50% in the presence of 100 nM of the compound) | ++ (percentage of potentiation is greater than or equal to 50% in the presence of 100 nM of the compound) |  | 
11 | Fc1ccc2nc(-c3ccc(Cl)cc3)c(Cn3nc4ccccc4n3)n2c1 [Compound 59, 2-((2-(4-chlorophenyl)-6-fluoroH-imidazo[1,2-a]pyridin-3-yl)methyl)-2H-benzo[d][1,2,3]triazole] | + (percentage of inhibition of central BZD site binding is greater than 50% but less than 80% in the presence of 1000 nM of the compound) | 0 (percentage of potentiation is between about 10% to about −10%) | 0 (percentage of potentiation is between about 10% to about −10%) |  | 
12 | Fc1ccc(-c2nc3ccc(Cl)cn3c2Cn2cncn2)cc1 [Compound 62, 3-((1H-1,2,4-triazol-1-yl)methyl)-6-chloro-2-(4-fluorophenyl)H-imidazo[1,2-a]pyridine] | ++ (percentage of inhibition of central BZD site binding is greater than 80% in the presence of 1000 nM of the compound) | + (percentage of potentiation is greater than or equal to 10% but less than 50% in the presence of 100 nM of the compound) | 0 (percentage of potentiation is between about 10% to about −10%) |  | 
13 | Cc1ccc2nc(-c3ccc(F)cc3)c(Cn3cncn3)n2c1 [Compound 63, 3-((1H-1,2,4-triazol-1-yl)methyl)-2-(4-fluorophenyl)-6-methylH-imidazo[1,2-a]pyridine] | ++ (percentage of inhibition of central BZD site binding is greater than 80% in the presence of 1000 nM of the compound) | + (percentage of potentiation is greater than or equal to 10% but less than 50% in the presence of 100 nM of the compound) | 0 (percentage of potentiation is between about 10% to about −10%) |  | 
14 | Brc1ccc(-c2nc3ccccn3c2Cn2cncn2)cc1 [Compound 64, 3-((1H-1,2,4-triazol-1-yl)methyl)-2-(4-bromophenyl)H-imidazo[1,2-a]pyridine] | ++ (percentage of inhibition of central BZD site binding is greater than 80% in the presence of 1000 nM of the compound) | + (percentage of potentiation is greater than or equal to 10% but less than 50% in the presence of 100 nM of the compound) | + (percentage of potentiation is greater than or equal to 10% but less than 50% in the presence of 100 nM of the compound) |  | 
